# pIC50, pKi: −log10 of the molar value. “And” between values parts separate entries of the source, which are not always exact repeats. Identical values can stand only once.
# Experiments:
# [1] = target: T1, Recombinant SrtA from S. aureus ATCC6538p (Staphylococcus aureus, UniProt Q2FV99); assay: SrtA inhibition assay (fluorescence-based enzymatic assay, Abz-LPETG-Dnp substrate); type: biochemical
# T1 construct: no tag is named in the print; made in house; host or cells: Escherichia coli
# Protocol: (§1) The SrtA inhibitory activity of compounds 1–6, along with that of a known SrtA inhibitor, quercetin [24], was evaluated in vitro using a fluorescence-based enzymatic assay. Recombinant SrtA from S. aureus ATCC6538p was expressed in Escherichia coli and was purified using nickel affinity chromatography. The cleavage of a synthetic peptide substrate by the SrtA enzyme emitted fluorescence, which was then measured. Table 1 presents the half maximal inhibitory concentration (IC50) values calculated from SrtA inhibition rates. […] As SrtA inhibitors act as anti-infective agents by disrupting bacterial pathogenesis without affecting microbial viability, minimum inhibitory concentration (MIC) values were examined to determine their effects on bacterial cell growth.
# To determine the type of inhibition, kinetic studies were performed with halenaquinol at IC50 or twofold IC50 based on a Lineweaver and Burk plot (Figure 2A). Inhibitor constants were obtained by a Dixon plot (Figure 2B). […] Moreover, the binding of halenaquinol to SrtA was reversible because the enzyme activity was recovered by dialysis, excluding the possible existence of a covalent bond between inhibitor and enzyme.
# The recombinant SrtA protein from S. aureus ATCC6538p was prepared using a previously described method. Each reaction comprised a 100 μL mixture containing a reaction buffer (50 mM Tris-HCl pH 7.5, 150 mM NaCl, and 5 mM CaCl2), 250 ng of synthetic fluorescent peptide substrate (Abz-LPETG-Dnp), 20 μg of SrtA, and varying concentrations of test samples. DMSO served as the negative control, while quercetin [24] was employed as the positive control. Test sample was dissolved in DMSO and then diluted with reaction buffer to yield a final DMSO concentration of 1%. The reaction mixture was aliquoted into a 96-well plate. Following the addition of SrtA, fluorescence intensity was determined using a microplate reader at excitation and emission wavelengths of 320 nm and 420 nm, respectively. The plate was then incubated for 1 h at 37 °C, and fluorescence intensity was measured. The effect of the inhibitor on SrtA was calculated as a percentage relative to the DMSO-treated control. The percentage of SrtA inhibition was calculated using the following equation: {1 − (Difference value of the test compound/Difference value of a negative control)} × 100. A 12-point, twofold serial dilution dose–response assay was performed independently in triplicate. The resultant dose–response concentration range was 128 to 0.1 μg/mL of inhibitor. Data were scaled to internal controls, and a four-parameter logistic model (SigmaPlot ver. 10.0) was used to fit the measured data and determine the IC50 values. In order to investigate the inhibition type and inhibition constant (Ki) values of halenaquinol, SrtA enzyme activity was monitored in various concentrations of substrate in the absence and presence of halenaquinol. All reactions were repeated three times and enzyme kinetics were evaluated using Lineweaver–Burk and Dixon plots.
# [2] = test system: S. aureus ATCC6538p; assay: Antibacterial activity (CLSI broth dilution MIC); type: cell-based; conditions: Staphylococcus aureus, ATCC6538P, 12 h
# Protocol: as §1
# An assessment of the antibacterial properties of the isolated compounds was conducted in accordance with the protocols provided by the Clinical and Laboratory Standard Institute (CLSI). The S. aureus ATCC6538p strain was cultivated overnight at 37 °C in Mueller–Hinton broth (MHB, BD Difco, Sparks, MD, USA). Subsequently, it was harvested using centrifugation, rinsed with sterilized deionized water, and adjusted to the optical density of a 0.5 McFarland standard (625 nm). Test compounds, initially dissolved in DMSO, were further diluted with MHB to achieve a range of 2-fold serial dilutions from 0.25 to 128 μg/mL (maintaining a final DMSO concentration of 1%). In a 96-well plate, 90 μL of the MHB containing the test compound were combined with 10 μL of broth inoculated with the bacterium (final bacterial concentration: 5 × 10^5 cfu/mL). Following a 12 h incubation at 37 °C, the MICs were determined as the lowest concentration at which bacterial growth was inhibited. Ampicillin (Duchefa, Amsterdam, The Netherlands) served as the reference standard.
# [3] = test system: SpA anchoring on cell wall surface of S. aureus Newman; assay: SpA cell wall surface anchoring after trypsin removal, Western blot with anti-SpA antibody; type: cell-based, Staphylococcus aureus; conditions: trypsin-treated wild type, 1 h
# Protocol: The anchoring of SpA on the cell-wall surface in S. aureus was measured using Western blot analysis with monoclonal anti-SpA antibody (Figure 4). […] Then, trypsin-treated wild-type S. aureus cells were incubated in medium containing an SrtA inhibitor, halenaquinol, over a concentration range of 1-to-4 times the IC50 values.
# The effect of the test compound on the in vivo inhibition of S. aureus SrtA was investigated by quantifying the abundance of SpA, catalyzed by the transpeptidation of SrtA on the bacterial surface [26]. […] For this study, S. aureus Newman (wild-type), a human clinical isolate, and its isogenic srtA-deletion mutant (ΔsrtA) were utilized [6, 37]. These strains were inoculated into 5 mL of TSB and incubated for 16 h at 37 °C with shaking. Cultures were then diluted 1:100 into TSB and were grown until the OD600 reached approximately 0.5. Cells from a 10 mL culture were harvested, rinsed with phosphate-buffered saline (PBS, Sigma–Aldrich), suspended in 5 mL of PBS containing 0.2 mg/mL trypsin (Sigma-Aldrich), incubated at 37 °C with shaking for 1 h, and washed with PBS. Subsequently, the cells were incubated in 5 mL of TSB containing 1 mM phenylmethylsulfonyl fluoride (PMSF), with the test compound at 37 °C with shaking for 1 h. Negative control groups were treated with DMSO solvent instead of the test compound. Then, aliquots (1 mL) were removed, and the cells were harvested and stored at −80 °C.
# S. aureus cells, prepared as described above, were suspended in 1 mL of ice-cold PBS containing 1 mM PMSF. A 1% (w/v) solution of Sulfo-NHS-SS-Biotin was prepared, and it was added (100 μL) to 1 mL of cells, resulting in a final concentration of 1.5 mM Sulfo-NHS-SS-Biotin. The cells were then incubated with gentle shaking at 80 rpm for 2 h on ice and were collected using centrifugation (4000× g, 5 min, 4 °C). To halt the biotinylation reaction, cells were washed three times with 1 mL of ice-cold PBS containing 500 mM glycine. Next, the cells were suspended in 500 μL of lysis buffer containing 100 μg/mL lysostaphin (Sigma–Aldrich) and 2 mM PMSF. […]
# T1 sequence (Q2FV99 whole entry): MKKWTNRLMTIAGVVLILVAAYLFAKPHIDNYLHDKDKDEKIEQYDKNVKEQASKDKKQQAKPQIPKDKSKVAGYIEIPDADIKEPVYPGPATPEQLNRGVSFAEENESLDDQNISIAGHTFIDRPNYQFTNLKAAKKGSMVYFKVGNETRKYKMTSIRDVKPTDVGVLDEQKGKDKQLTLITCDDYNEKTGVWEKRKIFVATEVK
structure (smiles),measurement,setting,value
"C[C@@]12CCC(=O)c3coc(c31)C(=O)c1cc3c(O)ccc(O)c3cc12 [Compound 2, halenaquinol]",pKi,[1],5.02
same,type of inhibition,[1]; Lineweaver-Burk plot at IC50 or twofold IC50,mixed inhibitor
same,pIC50,"[1]; SrtA IC50, recombinant SrtA from S. aureus ATCC6538p, mean ± SD (n = 3)",4.86
same,reversibility of binding to SrtA,[1]; enzyme activity recovered by dialysis,reversible
same,SrtA inhibitory potency relative to halenaquinol sulfate,[1]; ratio of IC50 values,approximately 9.2 times
same,MIC,[2],383 µM and > 128 µg/mL
same,anchoring of SpA on cell wall surface,[3]; 1 × IC50 (13.94 μM),no significant difference from the wild type
same,reduction of SpA anchoring,[3]; 2 × IC50 (27.88 μM),approximately 53%
same,reduction of SpA anchoring,[3]; 4 × IC50 (55.76 μM),~85%
